Target: T1, Endothelin-1 receptor (Sus scrofa, UniProt Q29010)
T1 sequence (Q29010 whole entry): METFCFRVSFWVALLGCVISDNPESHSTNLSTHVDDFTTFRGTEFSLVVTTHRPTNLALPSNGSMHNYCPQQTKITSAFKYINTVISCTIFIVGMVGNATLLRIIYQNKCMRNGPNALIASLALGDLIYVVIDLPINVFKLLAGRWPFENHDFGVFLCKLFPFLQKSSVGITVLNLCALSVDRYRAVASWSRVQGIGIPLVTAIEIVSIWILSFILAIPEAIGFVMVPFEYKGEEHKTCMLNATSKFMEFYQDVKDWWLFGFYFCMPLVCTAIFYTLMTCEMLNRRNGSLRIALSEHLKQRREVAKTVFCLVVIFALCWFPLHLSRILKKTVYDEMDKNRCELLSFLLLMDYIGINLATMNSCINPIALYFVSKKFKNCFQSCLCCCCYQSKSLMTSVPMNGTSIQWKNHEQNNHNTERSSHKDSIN
Experiment: The compound was tested for binding inhibitory activity against Endothelin A receptor from porcine aortic smooth muscle membranes.

SMILES | IC50 max [nM]
CC(C)C[C@@H]1NC(=O)[C@@H](C)NC(=O)[C@H](CC(=O)O)NC(=O)[C@H](Cc2c[nH]c3ccccc23)NC(=O)[C@@H](CC(C)C)NC1=O | 440
CC[C@H](C)[C@H]1NC(=O)[C@@H]2CCCN2C(=O)[C@@H](CC(=O)O)NC(=O)[C@@H](Cc2c[nH]c3ccccc23)NC(=O)[C@H](CC(C)C)NC1=O | 12
CC[C@@H](C)[C@H]1NC(=O)[C@@H]2CCCN2C(=O)[C@@H](CC(=O)O)NC(=O)[C@@H](Cc2c[nH]c3ccccc23)NC(=O)[C@H](CC(C)C)NC1=O | 64
CC(C)C[C@@H]1NC(=O)[C@@H]([C@H](C)O)NC(=O)[C@H](C)NC(=O)[C@@H](CC(=O)O)NC(=O)[C@@H](Cc2c[nH]c3ccccc23)NC1=O | 4200
CC(C)C[C@H]1NC(=O)[C@H](C(C)C)NC(=O)[C@H]2C[C@@H](O)CN2C(=O)[C@H](CC(=O)O)NC(=O)[C@H](Cc2c[nH]c3ccccc23)NC1=O | 18
CC(C)C[C@@H]1NC(=O)[C@@H](C(C)C)NC(=O)[C@@H]2CCCCN2C(=O)[C@@H](CC(=O)O)NC(=O)[C@@H](Cc2c[nH]c3ccccc23)NC1=O | 13
CC(C)C[C@@H]1NC(=O)[C@@H](C(C)C)NC(=O)CN(C)C(=O)[C@@H](CC(=O)O)NC(=O)[C@@H](Cc2c[nH]c3ccccc23)NC1=O (single isomer, unassigned) | 32
CC(C)C[C@@H]1NC(=O)[C@@H](C(C)C)NC(=O)[C@H](CCCCN)NC(=O)[C@@H](CC(=O)O)NC(=O)[C@@H](Cc2c[nH]c3ccccc23)NC1=O (single isomer, unassigned) | 200
CC(C)C[C@@H]1NC(=O)[C@@H](C(C)C)NC(=O)[C@H](CO)NC(=O)[C@@H](CC(=O)O)NC(=O)[C@@H](Cc2c[nH]c3ccccc23)NC1=O (single isomer, unassigned) | 190
CC(C)C[C@@H]1NC(=O)[C@@H](C(C)C)NC(=O)[C@H](Cc2ccccc2)NC(=O)[C@@H](CC(=O)O)NC(=O)[C@@H](Cc2c[nH]c3ccccc23)NC1=O (single isomer, unassigned) | 210
CC(C)C[C@@H]1NC(=O)[C@@H](C(C)C)NC(=O)[C@H](C(C)C)NC(=O)[C@@H](CC(=O)O)NC(=O)[C@@H](Cc2c[nH]c3ccccc23)NC1=O (single isomer, unassigned) | 530
CC(C)[C@H]1NC(=O)[C@H](C)NC(=O)[C@@H](CC(=O)O)NC(=O)[C@@H](Cc2c[nH]c3ccccc23)NC(=O)[C@H](CC2CCCCC2)NC1=O (single isomer, unassigned) | 5600
CC(C)C[C@@H]1NC(=O)[C@@H](C(C)C)NC(=O)[C@H](CC(=O)O)NC(=O)[C@@H](CC(=O)O)NC(=O)[C@@H](Cc2c[nH]c3ccccc23)NC1=O (single isomer, unassigned) | 180
CC(C)C[C@@H]1NC(=O)[C@@H](C(C)C)NC(=O)[C@H](CCCN=C(N)N)NC(=O)[C@@H](CC(=O)O)NC(=O)[C@@H](Cc2c[nH]c3ccccc23)NC1=O (single isomer, unassigned) | 150
CC(C)C[C@H]1C(=O)N[C@H](Cc2c[nH]c3ccccc23)C(=O)N[C@H](CC(=O)O)C(=O)N2CCC[C@H]2C(=O)N[C@H](C(C)C)C(=O)N1C (single isomer, unassigned) | 35
CC(C)C[C@@H]1NC(=O)CNC(=O)[C@H](CO)NC(=O)[C@@H](CC(=O)O)NC(=O)[C@@H](Cc2c[nH]c3ccccc23)NC1=O (single isomer, unassigned) | 35000
CC(C)C[C@@H]1NC(=O)[C@@H](C(C)C)NC(=O)[C@H](C)NC(=O)[C@H](CCC(=O)O)NC(=O)[C@H](Cc2c[nH]c3ccccc23)NC1=O (single isomer, unassigned) | > 100000
CC(C)C[C@@H]1NC(=O)[C@@H](C(C)C)NC(=O)[C@H](C)NC(=O)[C@@H](CCC(=O)O)NC(=O)[C@H](Cc2c[nH]c3ccccc23)NC1=O (single isomer, unassigned) | > 100000
CC(C)C[C@@H]1NC(=O)[C@@H](C(C)C)NC(=O)[C@H](C)NC(=O)[C@H](CCC(=O)O)NC(=O)[C@@H](Cc2c[nH]c3ccccc23)NC1=O (single isomer, unassigned) | > 100000
CC(C)C[C@@H]1NC(=O)[C@@H](CC(=O)O)NC(=O)[C@H](CO)NC(=O)[C@@H](CC(=O)O)NC(=O)[C@@H](Cc2c[nH]c3ccccc23)NC1=O (single isomer, unassigned) | > 100000
CC(C)C[C@@H]1NC(=O)[C@@H](C(C)C)NC(=O)[C@H](C)NC(=O)[C@@H](CC(=O)O)NC(=O)[C@@H](Cc2c[nH]c3ccccc23)NC1=O (single isomer, unassigned) | 110

SMILES | IC50 max [nM]
CCCC[C@H]1NC(=O)[C@@H]2CCCN2C(=O)[C@@H](CC(=O)O)NC(=O)[C@@H](Cc2c[nH]c3ccccc23)NC(=O)[C@H](CC(C)C)NC1=O (single isomer, unassigned) | 120
CC(C)C[C@@H]1NC(=O)[C@@H](C(C)C)NC(=O)[C@H](Cc2cnc[nH]2)NC(=O)[C@@H](CC(=O)O)NC(=O)[C@@H](Cc2c[nH]c3ccccc23)NC1=O (single isomer, unassigned) | 240
CC(C)C[C@@H]1NC(=O)[C@@H](C(C)(C)C)NC(=O)[C@@H]2CCCN2C(=O)[C@@H](CC(=O)O)NC(=O)[C@@H](Cc2c[nH]c3ccccc23)NC1=O (single isomer, unassigned) | 15
CC(C)C[C@@H]1NC(=O)[C@@H](C(C)C)NC(=O)CNC(=O)[C@@H](CC(=O)O)NC(=O)[C@@H](Cc2c[nH]c3ccccc23)NC1=O (single isomer, unassigned) | 160
CSCC[C@@H]1NC(=O)[C@@H](CC(=O)O)NC(=O)[C@@H](Cc2c[nH]c3ccccc23)NC(=O)[C@H](CC(C)C)NC(=O)[C@@H](C(C)C)NC1=O (single isomer, unassigned) | 130
CC(C)C[C@@H]1NC(=O)[C@@H](C(C)C)NC(=O)[C@@H]2CCCN2C(=O)[C@@H](CCC(=O)O)NC(=O)[C@@H](Cc2c[nH]c3ccccc23)NC1=O (single isomer, unassigned) | 410
CC(C)C[C@@H]1NC(=O)[C@@H](C(C)C)NC(=O)[C@H](CCCN)NC(=O)[C@@H](CC(=O)O)NC(=O)[C@@H](Cc2c[nH]c3ccccc23)NC1=O (single isomer, unassigned) | 250
CC(C)C[C@@H]1NC(=O)[C@@H](C2=CCC=CC2)NC(=O)[C@@H]2CCCN2C(=O)[C@@H](CC(=O)O)NC(=O)[C@@H](Cc2c[nH]c3ccccc23)NC1=O (single isomer, unassigned) | 19
CCC[C@H]1NC(=O)[C@@H]2CCCN2C(=O)[C@@H](CC(=O)O)NC(=O)[C@@H](Cc2c[nH]c3ccccc23)NC(=O)[C@H](CC(C)C)NC1=O (single isomer, unassigned) | 47
CC(C)C[C@@H]1NC(=O)[C@@H](C(C)C)NC(=O)[C@H](CCC(=O)O)NC(=O)[C@@H](CC(=O)O)NC(=O)[C@@H](Cc2c[nH]c3ccccc23)NC1=O (single isomer, unassigned) | 140
CC(C)C[C@@H]1NC(=O)[C@@H](C(C)C)NC(=O)[C@H](CCC(N)=O)NC(=O)[C@@H](CC(=O)O)NC(=O)[C@@H](Cc2c[nH]c3ccccc23)NC1=O (single isomer, unassigned) | 160
COC(=O)C[C@H]1NC(=O)[C@@H](Cc2c[nH]c3ccccc23)NC(=O)[C@H](CC(C)C)NC(=O)[C@@H](C(C)C)NC(=O)[C@@H]2CCCN2C1=O (single isomer, unassigned) | 390
CC(C)C[C@@H]1NC(=O)[C@@H](C(C)C)NC(=O)[C@@H]2CCCN2C(=O)[C@@H](CC(=O)O)NC(=O)[C@@H](Cc2cn(C=O)c3ccccc23)NC1=O (single isomer, unassigned) | 18
CC(C)C[C@@H]1NC(=O)[C@@H](c2ccccc2)NC(=O)[C@@H]2CCCN2C(=O)[C@@H](CC(=O)O)NC(=O)[C@@H](Cc2c[nH]c3ccccc23)NC1=O (single isomer, unassigned) | 24
CC(C)C[C@@H]1NC(=O)[C@@H](C(C)C)NC(=O)[C@H](CS)NC(=O)[C@@H](CC(=O)O)NC(=O)[C@@H](Cc2c[nH]c3ccccc23)NC1=O (single isomer, unassigned) | 240
CC(C)C[C@@H]1NC(=O)[C@@H](C(C)C)NC(=O)[C@@H]2CCCN2C(=O)[C@@H](CC(=O)O)NC(=O)[C@@H](Cc2c[nH]cn2)NC1=O (single isomer, unassigned) | > 100000
CC(C)C[C@@H]1NC(=O)[C@@H](C(C)C)NC(=O)C(C)(C)NC(=O)[C@@H](CC(=O)O)NC(=O)[C@@H](Cc2c[nH]c3ccccc23)NC1=O (single isomer, unassigned) | 330
CCC[C@@H]1NC(=O)[C@@H](C(C)C)NC(=O)[C@@H]2CCCN2C(=O)[C@@H](CC(=O)O)NC(=O)[C@@H](Cc2c[nH]c3ccccc23)NC1=O (single isomer, unassigned) | 33
CC(C)C[C@@H]1NC(=O)[C@@H](C(C)C)NC(=O)[C@@H]2CCCN2C(=O)[C@@H](CCO)NC(=O)[C@@H](Cc2c[nH]c3ccccc23)NC1=O (single isomer, unassigned) | 1700
CC(C)C[C@@H]1NC(=O)[C@@H](C(C)C)NC(=O)[C@H](C)NC(=O)[C@@H](CCC(=O)O)NC(=O)[C@@H](Cc2c[nH]c3ccccc23)NC1=O (single isomer, unassigned) | 3000
CC(C)C[C@@H]1NC(=O)[C@@H](C(C)(C)S)NC(=O)[C@@H]2CCCN2C(=O)[C@@H](CC(=O)O)NC(=O)[C@@H](Cc2c[nH]c3ccccc23)NC1=O (single isomer, unassigned) | 49
